Assays:
[1] = biological target: Serine/threonine-protein kinase PAK 2 (Homo sapiens) (UniProt Q13177); assay: Inhibition of human truncated PAK2 expressed in Escherichia coli cell assessed as substrate phosphorylation using fluorescence-labelled peptides as substrate at 420 uM after 90 mins by microfluidic peptide phosphorylation assay
[2] = biological target: Tyrosine-protein kinase ABL2 (Homo sapiens) (UniProt P42684); assay: Inhibition of human truncated Arg expressed in baculovirus assessed as substrate phosphorylation using fluorescence-labelled peptides as substrate at 9 uM after 90 mins by microfluidic peptide phosphorylation assay
[3] = biological target: Protein kinase C alpha type (Homo sapiens) (UniProt P17252); assay: Inhibition of human truncated PKC alpha expressed in baculovirus assessed as substrate phosphorylation using fluorescence-labelled peptides as substrate at 2 uM after 90 mins by microfluidic peptide phosphorylation assay
[4] = biological target: Casein kinase I isoform delta (Homo sapiens) (UniProt P48730); assay: Inhibition of human CK1D catalytic domain expressed in Escherichia coli cell assessed as substrate phosphorylation using fluorescence-labelled peptides as substrate at 2 uM after 90 mins by microfluidic peptide phosphorylation assay
[5] = biological target: Hepatocyte growth factor receptor (Homo sapiens) (UniProt P08581); assay: Inhibition of human MET cytoplasmic domain expressed in baculovirus assessed as substrate phosphorylation using fluorescence-labelled peptides as substrate at 2 uM after 90 mins by microfluidic peptide phosphorylation assay
[6] = biological target: T1, Cytoplasmic tyrosine-protein kinase BMX (Homo sapiens) (UniProt P51813); assay: Inhibition of human full length BMX expressed in baculovirus assessed as substrate phosphorylation using fluorescence-labelled peptides as substrate at 0.1 uM after 90 mins by microfluidic peptide phosphorylation assay
T1 sequence (whole entry): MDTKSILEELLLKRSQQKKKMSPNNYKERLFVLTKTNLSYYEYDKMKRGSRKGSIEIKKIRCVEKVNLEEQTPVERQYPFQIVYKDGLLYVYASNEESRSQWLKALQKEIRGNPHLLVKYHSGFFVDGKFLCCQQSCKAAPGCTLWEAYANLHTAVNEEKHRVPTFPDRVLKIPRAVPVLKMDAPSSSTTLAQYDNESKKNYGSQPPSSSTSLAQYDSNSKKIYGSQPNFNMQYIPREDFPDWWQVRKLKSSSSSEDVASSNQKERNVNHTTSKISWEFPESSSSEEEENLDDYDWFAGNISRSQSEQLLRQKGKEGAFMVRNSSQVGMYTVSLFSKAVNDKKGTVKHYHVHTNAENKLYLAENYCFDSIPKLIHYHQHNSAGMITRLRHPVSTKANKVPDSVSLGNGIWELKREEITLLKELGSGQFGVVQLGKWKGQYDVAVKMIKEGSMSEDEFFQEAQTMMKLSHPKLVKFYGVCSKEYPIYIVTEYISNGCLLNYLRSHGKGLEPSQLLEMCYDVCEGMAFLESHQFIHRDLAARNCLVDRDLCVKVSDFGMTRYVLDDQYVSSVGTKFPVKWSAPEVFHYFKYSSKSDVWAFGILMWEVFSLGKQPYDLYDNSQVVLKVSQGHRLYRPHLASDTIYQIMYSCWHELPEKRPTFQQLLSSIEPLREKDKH

[7] = biological target: T2, Aurora kinase C (Homo sapiens) (UniProt Q9UQB9); assay: Inhibition of human full length AurC expressed in baculovirus assessed as substrate phosphorylation using fluorescence-labelled peptides as substrate at 0.1 uM after 90 mins by microfluidic peptide phosphorylation assay
T2 sequence (whole entry): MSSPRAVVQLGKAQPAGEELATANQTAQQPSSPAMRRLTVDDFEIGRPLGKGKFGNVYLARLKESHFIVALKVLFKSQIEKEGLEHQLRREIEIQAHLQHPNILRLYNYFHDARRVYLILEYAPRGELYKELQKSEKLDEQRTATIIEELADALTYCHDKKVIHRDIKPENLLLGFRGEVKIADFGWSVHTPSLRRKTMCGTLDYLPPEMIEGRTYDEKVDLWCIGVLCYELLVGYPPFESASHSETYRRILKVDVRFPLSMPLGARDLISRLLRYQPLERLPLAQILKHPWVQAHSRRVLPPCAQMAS

[8] = biological target: Cyclin-dependent kinase 2 (Homo sapiens) (UniProt P24941); assay: Inhibition of human full length CDK2 expressed in baculovirus assessed as substrate phosphorylation using fluorescence-labelled peptides as substrate at 95 uM after 90 mins by microfluidic peptide phosphorylation assay
[9] = biological target: Calcium/calmodulin-dependent protein kinase type II subunit delta (Homo sapiens) (UniProt Q13557); assay: Inhibition of human full length CAMK2D expressed in baculovirus assessed as substrate phosphorylation using fluorescence-labelled peptides as substrate at 95 uM after 90 mins by microfluidic peptide phosphorylation assay
[10] = biological target: RAC-alpha serine/threonine-protein kinase (Homo sapiens) (UniProt P31749); assay: Inhibition of human AKT1 catalytic domain expressed in baculovirus assessed as substrate phosphorylation using fluorescence-labelled peptides as substrate at 95 uM after 90 mins by microfluidic peptide phosphorylation assay
[11] = biological target: Fibroblast growth factor receptor 3 (Homo sapiens) (UniProt P22607); assay: Inhibition of human FGFR3 catalytic domain expressed in baculovirus assessed as substrate phosphorylation using fluorescence-labelled peptides as substrate at 95 uM after 90 mins by microfluidic peptide phosphorylation assay
[12] = biological target: Hepatocyte growth factor receptor (Homo sapiens) (UniProt P08581); assay: Inhibition of human MET cytoplasmic domain expressed in baculovirus assessed as substrate phosphorylation using fluorescence-labelled peptides as substrate at 8 uM after 90 mins by microfluidic peptide phosphorylation assay
[13] = biological target: Insulin-like growth factor 1 receptor (Homo sapiens) (UniProt P08069); assay: Inhibition of human IGF1R catalytic domain expressed in baculovirus assessed as substrate phosphorylation using fluorescence-labelled peptides as substrate at 8 uM after 90 mins by microfluidic peptide phosphorylation assay
[14] = biological target: T3, Testis-specific serine/threonine-protein kinase 2 (Homo sapiens) (UniProt Q96PF2); assay: Inhibition of human full length TSSK2 expressed in baculovirus assessed as substrate phosphorylation using fluorescence-labelled peptides as substrate at 70 uM after 90 mins by microfluidic peptide phosphorylation assay
T3 sequence (whole entry): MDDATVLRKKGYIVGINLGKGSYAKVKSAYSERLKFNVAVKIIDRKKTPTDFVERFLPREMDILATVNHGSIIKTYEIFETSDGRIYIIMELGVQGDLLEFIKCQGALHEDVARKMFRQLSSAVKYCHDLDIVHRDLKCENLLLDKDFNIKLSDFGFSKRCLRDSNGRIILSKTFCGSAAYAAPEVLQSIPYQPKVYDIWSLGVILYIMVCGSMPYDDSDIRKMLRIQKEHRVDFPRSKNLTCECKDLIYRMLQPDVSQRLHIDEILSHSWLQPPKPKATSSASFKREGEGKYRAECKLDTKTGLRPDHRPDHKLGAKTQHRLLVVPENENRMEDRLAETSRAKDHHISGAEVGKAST

[15] = system: Tyrosine-protein kinase ABL1 (Homo sapiens), P00519 [T315I]; assay: Inhibition of human truncated ABL T315I mutant expressed in baculovirus assessed as substrate phosphorylation using fluorescence-labelled peptides as substrate at 70 uM after 90 mins by microfluidic peptide phosphorylation assay

Sequence of Hepatocyte growth factor receptor (Homo sapiens) (P08581 whole entry, the tested form may be a part): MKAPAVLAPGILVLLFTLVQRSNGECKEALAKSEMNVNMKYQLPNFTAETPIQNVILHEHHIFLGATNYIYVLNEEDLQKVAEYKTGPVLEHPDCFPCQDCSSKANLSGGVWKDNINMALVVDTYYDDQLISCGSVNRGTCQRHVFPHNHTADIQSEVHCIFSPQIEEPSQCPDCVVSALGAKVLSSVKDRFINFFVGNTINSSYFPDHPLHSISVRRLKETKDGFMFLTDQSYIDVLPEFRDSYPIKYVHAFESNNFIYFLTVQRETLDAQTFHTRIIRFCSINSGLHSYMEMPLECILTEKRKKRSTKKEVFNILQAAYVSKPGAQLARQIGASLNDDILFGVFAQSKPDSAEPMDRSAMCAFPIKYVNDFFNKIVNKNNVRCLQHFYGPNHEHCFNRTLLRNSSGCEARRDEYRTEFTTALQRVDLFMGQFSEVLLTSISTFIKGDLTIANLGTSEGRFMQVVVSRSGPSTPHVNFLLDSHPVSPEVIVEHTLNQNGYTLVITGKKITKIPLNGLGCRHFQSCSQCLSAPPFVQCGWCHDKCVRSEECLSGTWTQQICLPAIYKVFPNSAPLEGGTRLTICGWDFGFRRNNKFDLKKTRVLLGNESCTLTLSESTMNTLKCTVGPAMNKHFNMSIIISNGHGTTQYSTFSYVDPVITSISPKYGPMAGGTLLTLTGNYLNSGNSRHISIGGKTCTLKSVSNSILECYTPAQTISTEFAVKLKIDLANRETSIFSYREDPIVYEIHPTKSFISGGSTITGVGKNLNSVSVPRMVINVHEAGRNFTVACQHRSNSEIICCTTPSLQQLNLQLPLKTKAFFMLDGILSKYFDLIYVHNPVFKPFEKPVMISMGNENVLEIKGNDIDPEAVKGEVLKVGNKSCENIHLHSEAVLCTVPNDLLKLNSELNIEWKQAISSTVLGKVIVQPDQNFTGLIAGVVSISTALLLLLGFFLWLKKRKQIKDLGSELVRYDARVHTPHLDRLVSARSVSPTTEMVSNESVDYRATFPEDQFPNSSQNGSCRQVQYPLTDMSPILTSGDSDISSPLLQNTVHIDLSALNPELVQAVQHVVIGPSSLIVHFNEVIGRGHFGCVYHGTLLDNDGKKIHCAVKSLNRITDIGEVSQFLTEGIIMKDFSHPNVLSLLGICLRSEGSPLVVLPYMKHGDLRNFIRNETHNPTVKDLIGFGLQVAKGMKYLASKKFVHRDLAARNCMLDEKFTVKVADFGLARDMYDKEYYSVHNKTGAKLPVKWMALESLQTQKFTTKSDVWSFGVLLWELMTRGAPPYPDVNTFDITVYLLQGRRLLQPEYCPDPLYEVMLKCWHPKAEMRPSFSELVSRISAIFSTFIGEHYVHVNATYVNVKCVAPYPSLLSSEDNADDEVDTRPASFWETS
Sequence of Tyrosine-protein kinase ABL2 (Homo sapiens) (P42684 whole entry, the tested form may be a part): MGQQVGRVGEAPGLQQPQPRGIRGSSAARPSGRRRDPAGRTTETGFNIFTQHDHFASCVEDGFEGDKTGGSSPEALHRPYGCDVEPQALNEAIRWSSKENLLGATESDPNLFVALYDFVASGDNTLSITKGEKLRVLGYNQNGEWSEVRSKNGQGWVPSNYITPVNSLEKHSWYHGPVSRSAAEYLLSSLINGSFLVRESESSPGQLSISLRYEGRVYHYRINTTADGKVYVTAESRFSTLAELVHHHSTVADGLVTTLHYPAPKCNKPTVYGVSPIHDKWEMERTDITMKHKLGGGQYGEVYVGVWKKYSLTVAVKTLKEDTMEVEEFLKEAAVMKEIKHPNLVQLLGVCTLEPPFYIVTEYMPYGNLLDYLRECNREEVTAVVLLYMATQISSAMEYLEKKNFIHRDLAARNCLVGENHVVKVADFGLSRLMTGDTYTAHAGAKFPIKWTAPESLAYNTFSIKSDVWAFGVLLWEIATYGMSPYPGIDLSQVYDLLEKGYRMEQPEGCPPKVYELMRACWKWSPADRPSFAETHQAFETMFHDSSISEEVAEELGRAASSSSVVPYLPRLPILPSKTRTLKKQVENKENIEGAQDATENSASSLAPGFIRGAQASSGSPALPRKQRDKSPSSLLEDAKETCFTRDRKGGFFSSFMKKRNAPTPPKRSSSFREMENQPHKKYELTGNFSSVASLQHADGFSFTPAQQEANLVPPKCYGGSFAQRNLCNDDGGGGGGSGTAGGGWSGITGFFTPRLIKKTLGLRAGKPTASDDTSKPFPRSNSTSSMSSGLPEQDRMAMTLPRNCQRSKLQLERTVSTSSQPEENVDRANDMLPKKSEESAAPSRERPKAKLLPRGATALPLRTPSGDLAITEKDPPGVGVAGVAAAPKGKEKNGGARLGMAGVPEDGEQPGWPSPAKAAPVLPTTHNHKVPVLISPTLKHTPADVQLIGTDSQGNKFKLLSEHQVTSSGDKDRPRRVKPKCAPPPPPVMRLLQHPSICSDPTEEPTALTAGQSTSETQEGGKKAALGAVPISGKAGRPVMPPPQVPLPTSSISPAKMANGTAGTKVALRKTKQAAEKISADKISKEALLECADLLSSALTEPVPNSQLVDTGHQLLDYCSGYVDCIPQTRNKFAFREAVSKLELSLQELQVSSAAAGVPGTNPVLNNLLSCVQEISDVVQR
Sequence of Serine/threonine-protein kinase PAK 2 (Homo sapiens) (Q13177 whole entry, the tested form may be a part): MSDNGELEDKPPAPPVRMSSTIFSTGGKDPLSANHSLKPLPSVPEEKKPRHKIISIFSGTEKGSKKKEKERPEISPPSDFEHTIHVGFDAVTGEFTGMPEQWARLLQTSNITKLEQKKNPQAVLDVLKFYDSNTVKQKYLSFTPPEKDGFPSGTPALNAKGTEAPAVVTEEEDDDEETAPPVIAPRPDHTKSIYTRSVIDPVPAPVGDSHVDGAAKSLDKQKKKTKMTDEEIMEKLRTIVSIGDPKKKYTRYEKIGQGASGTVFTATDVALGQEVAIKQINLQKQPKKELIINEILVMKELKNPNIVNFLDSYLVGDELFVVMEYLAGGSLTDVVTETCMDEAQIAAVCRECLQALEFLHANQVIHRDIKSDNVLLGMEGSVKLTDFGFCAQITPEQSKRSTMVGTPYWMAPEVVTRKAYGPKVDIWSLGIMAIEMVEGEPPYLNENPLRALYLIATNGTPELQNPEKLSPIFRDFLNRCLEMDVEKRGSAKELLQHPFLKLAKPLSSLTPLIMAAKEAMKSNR
Sequence of Fibroblast growth factor receptor 3 (Homo sapiens) (P22607 23-806 limits assumed): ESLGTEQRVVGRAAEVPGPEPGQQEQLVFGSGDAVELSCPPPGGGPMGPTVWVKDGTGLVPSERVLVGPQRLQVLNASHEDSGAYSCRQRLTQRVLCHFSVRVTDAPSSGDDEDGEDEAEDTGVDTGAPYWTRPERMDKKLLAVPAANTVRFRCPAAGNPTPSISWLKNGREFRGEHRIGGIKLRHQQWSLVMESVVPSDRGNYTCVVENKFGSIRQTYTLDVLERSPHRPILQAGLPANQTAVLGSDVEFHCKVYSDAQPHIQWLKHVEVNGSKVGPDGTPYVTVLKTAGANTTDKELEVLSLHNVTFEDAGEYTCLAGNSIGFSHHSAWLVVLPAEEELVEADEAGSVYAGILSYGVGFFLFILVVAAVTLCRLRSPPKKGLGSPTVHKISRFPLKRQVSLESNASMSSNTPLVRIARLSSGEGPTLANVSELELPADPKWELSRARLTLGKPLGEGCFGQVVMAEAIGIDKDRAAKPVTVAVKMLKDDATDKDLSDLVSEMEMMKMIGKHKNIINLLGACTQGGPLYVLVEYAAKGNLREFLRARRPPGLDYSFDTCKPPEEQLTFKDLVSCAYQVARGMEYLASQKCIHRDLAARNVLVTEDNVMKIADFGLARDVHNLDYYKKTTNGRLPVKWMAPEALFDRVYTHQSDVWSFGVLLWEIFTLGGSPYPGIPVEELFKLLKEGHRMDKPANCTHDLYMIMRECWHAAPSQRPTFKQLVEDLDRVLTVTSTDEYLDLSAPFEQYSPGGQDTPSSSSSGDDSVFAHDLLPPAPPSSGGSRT
Sequence of Casein kinase I isoform delta (Homo sapiens) (P48730 whole entry, looked up, the tested form may be a part, canonical isoform): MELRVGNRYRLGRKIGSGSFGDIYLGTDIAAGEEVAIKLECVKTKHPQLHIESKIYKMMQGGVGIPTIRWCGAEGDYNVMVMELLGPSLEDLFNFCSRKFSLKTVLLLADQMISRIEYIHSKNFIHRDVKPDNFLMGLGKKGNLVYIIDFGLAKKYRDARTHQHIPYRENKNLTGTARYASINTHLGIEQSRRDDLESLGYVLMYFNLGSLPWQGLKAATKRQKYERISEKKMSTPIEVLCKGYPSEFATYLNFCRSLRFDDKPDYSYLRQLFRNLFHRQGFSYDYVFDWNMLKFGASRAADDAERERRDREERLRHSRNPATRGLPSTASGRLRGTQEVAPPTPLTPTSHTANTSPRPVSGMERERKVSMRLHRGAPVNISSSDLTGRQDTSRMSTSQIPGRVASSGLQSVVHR

`c1nc(N2CCOCC2)c2nc[nH]c2n1` showed an inhibition [1] of 67.5%.

With `NCC1CN(c2ncnc3[nH]c4cnccc4c23)CCO1` (stereo not given) the inhibition [2] was 6.5%.

With `NC1CCN(c2ncnc3[nH]ccc23)CC1` the inhibition [3] was 18%, the inhibition [4] was 0% and the inhibition [5] was 0%.

Work on `C[C@H](CN(C)C)Oc1nc(Nc2cc3cccc(Cl)c3cn2)cnc1C#N` yielded an inhibition [6] of 3% and an inhibition [7] of 1%.

In the case of `NCCc1ccc(-c2ncnc3[nH]cnc23)cc1`, the inhibition [8] is reported as 39.5%, the inhibition [9] is reported as 45.5% and the inhibition [10] is reported as 81%. The inhibition [11] was 27%.

`NCC1CCN(c2ncnc3[nH]ccc23)CC1` was tested, and the inhibition [12] was 9% and the inhibition [13] was 30%.

`CNCc1ccc(-c2ncnc3[nH]cnc23)cc1` was tested, and the inhibition [14] was 10% and the inhibition [15] was 22%.

Reference: ChEMBL document CHEMBL3132769, “Fragment growing to retain or alter the selectivity of anchored kinase hinge-binding fragments” (Medchemcomm, 2014)
